{"source": "patent US20120060243A1", "about": "“Herbicide-Resistant AHAS-Mutants and Methods of Use” (priority 2008, published 2012)", "format_in_all_cases": "in vivo, Brassica napus", "key": {"[1]": {"test_system": "Bn WT 2", "assay": "Field trial crop phytotoxicity, Simcoe", "conditions": "18 Days After Treatment, line Bn WT 2; for Mean Percent Crop Phytotoxicity (% Crop Injury): field, 2-4 leaf stage", "excerpt": "(§1) Hand-crossed hybrids were produced in the greenhouse between two IMI-tolerant spring Brassica napus parental lines: “BnCL131A1” (homozygous for the A genome IMI-tolerant mutation AHASL1A-A122(At)T-S653(At)N) and “PM1PM2” (homozygous for the A genome AHAS-inhibitor tolerant mutation AHASL1A-W574(At)L (PM2) plus the C genome AHAS-inhibitor tolerant mutation AHASL1C-S653(At)N(PM1)). The resulting heterozygous hand-crossed hybrid line, “PM1PM2/BnCL131A 1” (heterozygous for the stacked mutations: AHASL1A-A122(At)T-S653(At)N, AHASL1A-W574(At)L (PM2), AHASL1C-S653(At)N(PM1)) was field tested together with lines each containing only one AHAS-inhibitor tolerant mutation (homozygous or heterozygous) and several spring Brassica napus checks.\n(§2) The three repetition trial was conducted in Simcoe, N. Dak., and used a randomized split block design. The trial was designed to measure the percent phytotoxicity (% crop injury) of the different entries under 5 different imidazolinone herbicide treatment rates. Plants were sprayed at the 2-4 leaf stage at a volume of 100 liters/ha. The imidazolinone herbicide rates used were as follows (Imazamox=BEYOND™ 120 g/I LC (BAS 72001H); NIS=INDUCE™ 90 (90% non-ionic surfactant; Helena Chemical Co., Collierville, Tenn.):\n(§3) Crop Injury Ratings were determined in the field by assessing each plot in the trial for the level of phytotoxicity (percent crop injury) on a scale from 0-100% at 18 days after treatment. Mean values for each entry across the three replications along with their statistical significance (ANOVA) are presented in Table 6 (Ho=homozygous; He=heterozygous). Each value presented in Table 6 is the mean of three replications.\n(§4) The percent phytotoxicity (% crop injury) ratings were transposed into Herbicide Tolerance ratings by subtracting the percent crop injury rating (Table 6) for each line from 100% to obtain the percent herbicide tolerance (Table 7) (Ho=homozygous; He=heterozygous)."}, "[2]": {"test_system": "Bn WT 1", "assay": "Field trial crop phytotoxicity, Simcoe", "conditions": "18 Days After Treatment, line Bn WT 1; for Mean Percent Crop Phytotoxicity (% Crop Injury): field, 2-4 leaf stage", "excerpt": "as §1, §2, §3, §4"}, "[3]": {"test_system": "PM1 (AHASL1C-PM1), S653N (Ho)", "assay": "Field trial crop phytotoxicity, Simcoe", "conditions": "18 Days After Treatment, line PM1 (AHASL1C-PM1); for Mean Percent Crop Phytotoxicity (% Crop Injury): field, 2-4 leaf stage", "excerpt": "as §1, §2, §3, §4"}, "[4]": {"test_system": "PM1/PM2 (commercial two gene check: AHAS I S653N & AHAS III W574L)", "assay": "Herbicide injury rating, Table 4", "conditions": "3-4 leaf stage, 2 weeks post spray, line PM1/PM2", "protocol": "(§5) Herbicide Injury Rating for Brassica napus Plants Treated with Imazamox. Plants for lines BN02 (wild type), two lines of BnCL131A1 (AHAS III A122T S653N double mutant; BnCL131A1.0 and BnCL131A1.18), PM1/PM2 (commercial two gene check: AHAS I S653N & AHAS III W574L) were grown […] Merge. Herbicide injury was evaluated 2 weeks post spray on 12 plants per line. The results are presented as mean injury±one standard error of the mean in Table 4 below. The results cover one planting and spray for all lines and the values for ±two standard error of the mean are also provided."}, "[5]": {"test_system": "BnCL131A1.0 (AHAS III A122T S653N double mutant)", "assay": "Herbicide injury rating, Table 4", "conditions": "3-4 leaf stage, 2 weeks post spray, line BnCL131A1.0", "protocol": "as §5"}, "[6]": {"test_system": "BnCL131A1.18 (AHAS III A122T S653N double mutant)", "assay": "Herbicide injury rating, Table 4", "conditions": "3-4 leaf stage, 2 weeks post spray, line BnCL131A1.18", "protocol": "as §5"}, "[7]": {"test_system": "BN-02 (wild type)", "assay": "Herbicide injury rating, Table 4", "conditions": "3-4 leaf stage, 2 weeks post spray, line BN-02", "protocol": "as §5"}, "[8]": {"conditions": "mean over 0, 35, 70, 140, 210 g ai/ha (N 15)"}}, "data": [{"molecule": "COCc1cnc(C2=NC(C)(C(C)C)C(=O)N2)c(C(=O)O)c1", "note": "(stereo not shown) [imazamox]", "values": [{"measurement": "Mean Percent Crop Phytotoxicity (% Crop Injury)", "setting": "[1]; 35 g ai/ha + 0.25% (v/v) NIS", "result": 95, "unit": "%"}, {"measurement": "Mean Percent Herbicide Tolerance (100% minus percent crop injury)", "setting": "[1]; 35 g ai/ha", "result": 5.0, "unit": "%"}, {"measurement": "Mean Percent Crop Phytotoxicity (% Crop Injury)", "setting": "[1]; 70 g ai/ha + 0.25% (v/v) NIS", "result": 100, "unit": "%"}, {"measurement": "Mean Percent Herbicide Tolerance (100% minus percent crop injury)", "setting": "[1]; 70 g ai/ha", "result": 0.0, "unit": "%"}, {"measurement": "Mean Percent Crop Phytotoxicity (% Crop Injury)", "setting": "[1]; 140 g ai/ha + 0.25% (v/v) NIS", "result": 100, "unit": "%"}, {"measurement": "Mean Percent Herbicide Tolerance (100% minus percent crop injury)", "setting": "[1]; 140 g ai/ha", "result": 0.0, "unit": "%"}, {"measurement": "Mean Percent Crop Phytotoxicity (% Crop Injury)", "setting": "[1]; 210 g ai/ha + 0.25% (v/v) NIS", "result": 100, "unit": "%"}, {"measurement": "Mean Percent Herbicide Tolerance (100% minus percent crop injury)", "setting": "[1]; 210 g ai/ha", "result": 0.0, "unit": "%"}, {"measurement": "Mean Percent Crop Phytotoxicity (% Crop Injury), Mean over rates", "setting": "[1]; [8]", "result": 79, "unit": "%"}, {"measurement": "Mean Percent Crop Phytotoxicity (% Crop Injury)", "setting": "[2]; 35 g ai/ha + 0.25% (v/v) NIS", "result": 85, "unit": "%"}, {"measurement": "Mean Percent Herbicide Tolerance (100% minus percent crop injury)", "setting": "[2]; 35 g ai/ha", "result": 15.0, "unit": "%"}, {"measurement": "Mean Percent Crop Phytotoxicity (% Crop Injury)", "setting": "[2]; 70 g ai/ha + 0.25% (v/v) NIS", "result": 96.67, "unit": "%"}, {"measurement": "Mean Percent Herbicide Tolerance (100% minus percent crop injury)", "setting": "[2]; 70 g ai/ha", "result": 3.3, "unit": "%"}, {"measurement": "Mean Percent Crop Phytotoxicity (% Crop Injury)", "setting": "[2]; 140 g ai/ha + 0.25% (v/v) NIS", "result": 100, "unit": "%"}, {"measurement": "Mean Percent Herbicide Tolerance (100% minus percent crop injury)", "setting": "[2]; 140 g ai/ha", "result": 0.0, "unit": "%"}, {"measurement": "Mean Percent Crop Phytotoxicity (% Crop Injury)", "setting": "[2]; 210 g ai/ha + 0.25% (v/v) NIS", "result": 98.33, "unit": "%"}, {"measurement": "Mean Percent Herbicide Tolerance (100% minus percent crop injury)", "setting": "[2]; 210 g ai/ha", "result": 1.7, "unit": "%"}, {"measurement": "Mean Percent Crop Phytotoxicity (% Crop Injury), Mean over rates", "setting": "[2]; [8]", "result": 76, "unit": "%"}, {"measurement": "Mean Percent Crop Phytotoxicity (% Crop Injury)", "setting": "[3]; 35 g ai/ha + 0.25% (v/v) NIS", "result": 66.67, "unit": "%"}, {"measurement": "Mean Percent Herbicide Tolerance (100% minus percent crop injury)", "setting": "[3]; 35 g ai/ha", "result": 33.3, "unit": "%"}, {"measurement": "Mean Percent Crop Phytotoxicity (% Crop Injury)", "setting": "[3]; 70 g ai/ha + 0.25% (v/v) NIS", "result": 86.67, "unit": "%"}, {"measurement": "Mean Percent Herbicide Tolerance (100% minus percent crop injury)", "setting": "[3]; 70 g ai/ha", "result": 13.3, "unit": "%"}, {"measurement": "Mean Percent Crop Phytotoxicity (% Crop Injury)", "setting": "[3]; 140 g ai/ha + 0.25% (v/v) NIS", "result": 91.67, "unit": "%"}, {"measurement": "Mean Percent Herbicide Tolerance (100% minus percent crop injury)", "setting": "[3]; 140 g ai/ha", "result": 8.3, "unit": "%"}, {"measurement": "Mean Percent Crop Phytotoxicity (% Crop Injury)", "setting": "[3]; 210 g ai/ha + 0.25% (v/v) NIS", "result": 91.67, "unit": "%"}, {"measurement": "Mean Percent Herbicide Tolerance (100% minus percent crop injury)", "setting": "[3]; 210 g ai/ha", "result": 8.3, "unit": "%"}, {"measurement": "Mean Percent Crop Phytotoxicity (% Crop Injury), Mean over rates", "setting": "[3]; [8]", "result": 67.33, "unit": "%"}, {"measurement": "Herbicide injury rating, mean injury ± standard error of the mean", "setting": "[4]; 35 g ai/ha + 0.5% v/v Merge", "result": "0.50 ± 0.19"}, {"measurement": "Herbicide injury rating, mean injury ± standard error of the mean", "setting": "[4]; 70 g ai/ha + 0.5% v/v Merge", "result": "1.83 ± 0.21"}, {"measurement": "Herbicide injury rating, mean injury ± standard error of the mean", "setting": "[4]; 210 g ai/ha + 0.5% v/v Merge", "result": "2.00 ± 0.23"}, {"measurement": "Herbicide injury rating, mean injury ± standard error of the mean", "setting": "[4]; 420 g ai/ha", "result": "3.83 ± 0.21"}, {"measurement": "Herbicide injury rating, mean injury ± standard error of the mean", "setting": "[5]; 35 g ai/ha + 0.5% v/v Merge", "result": "0.90 ± 0.28"}, {"measurement": "Herbicide injury rating, mean injury ± standard error of the mean", "setting": "[5]; 70 g ai/ha + 0.5% v/v Merge", "result": "1.20 ± 0.29"}, {"measurement": "Herbicide injury rating, mean injury ± standard error of the mean", "setting": "[5]; 210 g ai/ha + 0.5% v/v Merge", "result": "1.45 ± 0.28"}, {"measurement": "Herbicide injury rating, mean injury ± standard error of the mean", "setting": "[5]; 420 g ai/ha", "result": "3.20 ± 0.20"}, {"measurement": "Herbicide injury rating, mean injury ± standard error of the mean", "setting": "[6]; 35 g ai/ha + 0.5% v/v Merge", "result": "0.64 ± 0.20"}, {"measurement": "Herbicide injury rating, mean injury ± standard error of the mean", "setting": "[6]; 70 g ai/ha + 0.5% v/v Merge", "result": "0.91 ± 0.21"}, {"measurement": "Herbicide injury rating, mean injury ± standard error of the mean", "setting": "[6]; 210 g ai/ha + 0.5% v/v Merge", "result": "1.89 ± 0.20"}, {"measurement": "Herbicide injury rating, mean injury ± standard error of the mean", "setting": "[6]; 420 g ai/ha", "result": "2.27 ± 0.14"}, {"measurement": "Herbicide injury rating, mean injury ± standard error of the mean", "setting": "[7]; 35 g ai/ha + 0.5% v/v Merge", "result": "8.92 ± 0.08"}, {"measurement": "Herbicide injury rating, mean injury ± standard error of the mean", "setting": "[7]; 70 g ai/ha + 0.5% v/v Merge", "result": "9.00 ± 0.00"}, {"measurement": "Herbicide injury rating, mean injury ± standard error of the mean", "setting": "[7]; 210 g ai/ha + 0.5% v/v Merge", "result": "9.00 ± 0.00"}, {"measurement": "Herbicide injury rating, mean injury ± standard error of the mean", "setting": "[7]; 420 g ai/ha", "result": "9.00 ± 0.00"}]}]}
